Source: patent US8604042B2, “Bi-aryl meta-pyrimidine inhibitors of kinases” (TargeGen, Inc., priority 2005, dated 2013)
Counter-ions that a name gives are not always drawn.

target: T1, recombinant JAK2 (Homo sapiens, UniProt O60674); assay: IC50 value determinations for Jak2 kinase, luminescence-based kinase assay (Kinase-Glo); assay type: biochemical; conditions: Table 1
T1 construct: purchased Upstate Cell Signaling Solutions
T1 sequence (O60674 808-1132 limits assumed): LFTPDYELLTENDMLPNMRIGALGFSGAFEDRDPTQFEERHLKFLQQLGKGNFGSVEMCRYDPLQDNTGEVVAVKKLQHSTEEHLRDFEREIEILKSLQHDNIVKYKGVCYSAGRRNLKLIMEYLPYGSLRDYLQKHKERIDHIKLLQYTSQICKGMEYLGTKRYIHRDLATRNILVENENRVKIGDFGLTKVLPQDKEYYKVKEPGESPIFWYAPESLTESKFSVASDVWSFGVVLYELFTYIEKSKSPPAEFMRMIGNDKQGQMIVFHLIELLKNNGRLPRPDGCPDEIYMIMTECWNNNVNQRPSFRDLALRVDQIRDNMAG

| SMILES | IC50 |
| --- | --- |
| Cc1cnc(Nc2ccc(CN3CCN(C)CC3)cc2)nc1Nc1cccc(S(=O)(=O)NC(C)(C)C)c1 | 29.8 nM |
| Cc1cnc(Nc2ccc(N3CCN(C)CC3)cc2)nc1Nc1cccc(NC(=O)Nc2cccc(C(F)(F)F)c2)c1 [1-(3-{5-Methyl-2-[4-(4-methyl-piperazin-1-yl)-phenylamino]-pyrimidin-4-ylamino}-phenyl)-3-(3-trifluoromethyl-phenyl)-urea] | 126 nM |
| Cc1cnc(Nc2ccc(N3CCN(C)CC3)cc2)nc1Nc1cccc(NC(=O)Nc2ccccc2)c1 [1-(3-{5-Methyl-2-[4-(4-methyl-piperazin-1-yl)-phenylamino]-pyrimidin-4-ylamino}-phenyl)-3-phenyl-urea] | 63.6 nM |
| CNS(=O)(=O)c1cc(Nc2nc(Nc3ccc(OCCN4CCCC4)cc3)ncc2C)ccc1C [2,N-Dimethyl-5-{5-methyl-2-[4-(2-pyrrolidin-1-yl-ethoxy)-phenylamino]-pyrimidin-4-ylamino}-benzenesulfonamide] | 127 nM |
| CCOC(=O)c1cccc(Nc2nc(Nc3ccc(N4CCN(C)CC4)cc3)ncc2C)c1C [2-Methyl-3-{5-methyl-2-[4-(4-methyl-piperazin-1-yl)-phenylamino]-pyrimidin-4-ylamino)-benzoic acid ethyl ester] | 27.8 nM |
| Cc1cnc(Nc2ccc(N3CCN(C)CC3)cc2)nc1Nc1cccc(C(N)=O)c1C [2-Methyl-3-{5-methyl-2-[4-(4-methyl-piperazin-1-yl)-phenylamino]-pyrimidin-4-ylamino}-benzamide] | 26.2 nM |
| Cc1cnc(Nc2ccc(N3CCN(C)CC3)cc2)nc1Nc1cccc(C2CCN(CCO)CC2)c1 [2-[4-(3-{5-Methyl-2-[4-(4-methyl-piperazin-1-yl)-phenylamino]-pyrimidin-4-ylamino}-phenyl)-piperidin-1-yl]-ethanol] | 8.46 nM |
| COc1cc(Nc2nc(Nc3ccc(OCCO)cc3)ncc2C)ccc1Cl [2-{4-[4-(4-Chloro-3-methoxy-phenylamino)-5-methyl-pyrimidin-2-ylamino]-phenoxy}-ethanol] | 9.14 nM |
| Cc1cnc(Nc2ccc(OCCO)nc2)nc1Nc1cccc2c1OCO2 [2-{5-[4-(Benzo[1,3]dioxol-4-ylamino)-5-methyl-pyrimidin-2-ylamino]-pyridin-2-yloxy}-ethanol] | 116 nM |
| Cc1cnc(Nc2ccc(OCCN3CCCC3)cc2)nc1Nc1cccc(O)c1 [3-(2-(4-(2-(pyrrolidin-1-yl)ethoxy)phenylamino)-5-methylpyrimidin-4-ylamino)phenol Hydrochloride] | 203 nM |
| Cc1cnc(Nc2ccc(OC3CCNCC3)cc2)nc1Nc1cccc(O)c1 [3-(2-(4-(piperidin-4-yloxy)phenylamino)-5-methylpyrimidin-4-ylamino)phenol] | 51.9 nM |
| CC(=O)N1CCN(c2ccc(Nc3ncc(C)c(Nc4cccc(S(=O)(=O)NC(C)(C)C)c4)n3)cc2C(F)(F)F)CC1 [3-[(2-{[4-(4-acetylpiperazin-1-yl)-3-(trifluoromethyl)phenyl]amino}-5-methylpyrimidin-4-yl)amino]-N-tert-butylbenzenesulfonamide] | 35.7 nM |
| CC(=O)N1CCN(c2ccc(Nc3ncc(C)c(Nc4cccc(S(=O)(=O)NC(C)(C)C)c4)n3)cc2)CC1 [3-{2-[4-(4-Acetyl-piperazin-1-yl)-phenylamino]-5-methyl-pyrimidin-4-ylamino}-N-tert-butyl-benzenesulfonamide] | 18.6 nM |
| Cc1cnc(Nc2ccc(OCCN3CCCC3)cc2)nc1Nc1cccc(S(N)(=O)=O)c1 [3-{5-Methyl-2-[4-(2-pyrrolidin-1-yl-ethoxy)-phenylamino]-pyrimidin-4-ylamino}-benzenesulfonamide] | 72.2 nM |
| Cc1cnc(Nc2ccc(N3CCN(C)CC3)cc2)nc1Nc1cccc(S(=O)(=O)NC2CCNCC2)c1 [3-{5-Methyl-2-[4-(4-methyl-piperazin-1-yl)-phenylamino]-pyrimidin-4-ylamino}-N-piperidin-4-yl-benzenesulfonamide] | 543 nM |
| Cc1cnc(Nc2ccc(N3CCN(C)CC3)cc2)nc1Nc1cccc(C(N)=O)c1 [3-{5-Methyl-2-[4-(4-methyl-piperazin-1-yl)-phenylamino]-pyrimidin-4-ylamino}-benzamide] | 23 nM |
| Cc1cnc(Nc2ccc(N3CCN(C)CC3)cc2)nc1Nc1cccc(S(N)(=O)=O)c1 [3-{5-Methyl-2-[4-(4-methyl-piperazin-1-yl)-phenylamino]-pyrimidin-4-ylamino}-benzenesulfonamide] | 13.6 nM |
| Cc1cnc(Nc2ccc(OCCN3CCCC3)cc2)nc1Nc1ccc(C#N)c(Cl)c1 [4-(2-(4-(2-(pyrrolidin-1-yl)ethoxy)phenylamino)-5-methylpyrimidin-4-ylamino)-2-chlorobenzonitrile Hydrochloride] | 67.5 nM |
| O=S(=O)(NCCN1CCCC1)c1ccc(Nc2nccc(Nc3cccc(O)c3)n2)cc1 [4-[4-(3-Hydroxy-phenylamino)-pyrimidin-2-ylamino]-N-(2-pyrrolidin-1-yl-ethyl)-benzenesulfonamide trifluoroacetate] | 3620 nM |
| COc1cccc(Nc2ccnc(Nc3ccc(S(=O)(=O)NCCN4CCCC4)cc3)n2)c1 [4-[4-(3-Methoxy-phenylamino)-pyrimidin-2-ylamino]-N-(2-pyrrolidin-1-yl-ethyl)-benzenesulfonamide trifluoroacetate] | 638 nM |
| O=S(=O)(NCCN1CCCC1)c1ccc(Nc2nccc(Nc3ccc(O)cc3)n2)cc1 [4-[4-(4-Hydroxy-phenylamino)-pyrimidin-2-ylamino]-N-(2-pyrrolidin-1-yl-ethyl)-benzenesulfonamide] | 9740 nM |
| COc1ccc(Nc2ccnc(Nc3ccc(S(=O)(=O)NCCN4CCCC4)cc3)n2)cc1 [4-[4-(4-Methoxy-phenylamino)-pyrimidin-2-ylamino]-N-(2-pyrrolidin-1-yl-ethyl)-benzenesulfonamide trifluoroacetate] | 10700 nM |
| Cc1cnc(Nc2ccc(N3CCN(C)CC3)cc2)nc1Nc1cccc(C2CCNCC2)c1 [5-Methyl-N2-[4-(4-methyl-piperazin-1-yl)-phenyl]-N4-(3-piperidin-4-yl-phenyl)-pyrimidine-2,4-diamine] | 42.5 nM |
| Cc1cnc(Nc2ccc(N3CCN(C)CC3)cc2)nc1Nc1cccc(S(=O)(=O)N2CCCCC2C)c1 (centres unmarked) [5-Methyl-N2-[4-(4-methyl-piperazin-1-yl)-phenyl]-N4-[3-(2-methyl-piperidine-1-sulfony)-phenyl]-pyrimidine-2,4-diamine Hydrochloride] | 33.5 nM |

More lines, now with the values ahead:

| IC50 | SMILES |
| --- | --- |
| 20.7 nM | Cc1cnc(Nc2ccc(N3CCN(C)CC3)cc2)nc1Nc1cccc(S(=O)(=O)N2CCOCC2)c1 [5-Methyl-N2-[4-(4-methyl-piperazin-1-yl)-phenyl]-N4-[3-(morpholine-4-sulfonyl)-phenyl]-pyrimidine-2,4-diamine] |
| 24.8 nM | Cc1cnc(Nc2ccc(N3CCN(C)CC3)cc2)nc1Nc1cccc(S(=O)(=O)N2CCCCC2)c1 [5-Methyl-N2-[4-(4-methyl-piperazin-1-yl)-phenyl]-N4-[3-(piperidine-1-sulfony)-phenyl]-pyrimidine-2,4-diamine Hydrochloride] |
| 198 nM | Cc1cnc(Nc2ccc(N3CCN(C)CC3)cc2)nc1Nc1cccc(S(=O)(=O)C2CCNCC2)c1 [5-Methyl-N2-[4-(4-methyl-piperazin-1-yl)-phenyl]-N4-[3-(piperidine-4-sulfonyl)-phenyl]-pyrimidine-2,4-diamine] |
| 17.1 nM | Cc1cnc(Nc2ccc(N3CCN(C)CC3)cc2)nc1Nc1cccc(S(=O)(=O)N2CCCC2)c1 [5-Methyl-N2-[4-(4-methyl-piperazin-1-yl)-phenyl]-N4-[3-(pyrrolidine-1-sulfony)-phenyl]-pyrimidine-2,4-diamine Hydrochloride] |
| 52.9 nM | Cc1cnc(Nc2ccc(OC3CCNCC3)cc2)nc1Nc1cccc(C(F)(F)F)c1C [5-Methyl-N4-(2-methyl-3-trifluoromethyl-phenyl)-N2-[4-(piperidin-4-yloxy)-phenyl]-pyrimidine-2,4-diamine] |
| 16.7 nM | Cc1cnc(Nc2ccc(OCCN3CCCC3)cc2)nc1Nc1ccccc1 [5-Methyl-N4-phenyl-N2-[4-(2-pyrrolidin-1-yl-ethoxy)-phenyl]-pyrimidine-2,4-diamine] |
| 5.12 nM | COC(=O)c1cc(Nc2ncc(C)c(Nc3ccc(Cl)c(OC)c3)n2)ccc1N1CCNCC1 [5-[4-(4-Chloro-3-methoxy-phenylamino)-5-methyl-pyrimidin-2-ylamino]-2-piperazin-1-yl-benzoic acid methyl ester] |
| 16.4 nM | COC(=O)c1cc(Nc2ncc(C)c(Nc3cccc4c3OCO4)n2)ccc1OCCN1CCCC1 [5-[4-(Benzo[1,3]dioxol-4-ylamino)-5-methyl-pyrimidin-2-ylamino]-2-(2-pyrrolidin-1-yl-ethoxy)-benzoic acid methyl ester] |
| 215 nM | Cc1cnc(Nc2ccc(N3CCN(C)CC3)cc2)nc1Nc1cccc(S(C)(=O)=O)c1 [5-methyl-N2-(4-(4-methylpiperazin-1-yl)phenyl)-N4-(3-(methylsulfonyl)phenyl) pyrimidine-2,4-diamine] |
| 46.3 nM | Cc1cnc(Nc2ccc(N3CCN(C)CC3)cc2)nc1Nc1cccc(N2CCCCC2)c1 [5-methyl-N2-(4-(4-methylpiperazin-1-yl)phenyl)-N4-(3-(piperidin-1-yl)phenyl)pyrimidine-2,4-diamine] |
| 8 nM | CCCS(=O)(=O)c1cccc(Nc2nc(Nc3ccc(N4CCN(C)CC4)cc3)ncc2C)c1 [5-methyl-N2-(4-(4-methylpiperazin-1-yl)phenyl)-N4-(3-(propylsulfonyl)phenyl) pyrimidine-2,4-diamine] |
| 16 nM | Cc1cnc(Nc2ccc(N3CCN(C)CC3)cc2)nc1Nc1cccc(C)c1C [5-methyl-N4-(2,3-dimethylphenyl)-N2-(4-(4-methylpiperazin-1-yl)phenyl)pyrimidine-2,4-diamine Hydrochloride] |
| 4.38 nM | Cc1cnc(Nc2ccc(OC3CCNCC3)cc2)nc1Nc1cccc(C)c1C [5-methyl-N4-(2,3-dimethylphenyl)-N2-(4-(piperidin-4-yloxy)phenyl)pyrimidine-2,4-diamine Hydrochloride] |
| 37.2 nM | Cc1cc(C)cc(Nc2nc(Nc3ccc(OC4CCNCC4)cc3)ncc2C)c1 [5-methyl-N4-(3,5-dimethylphenyl)-N2-(4-(piperidin-4-yloxy)phenyl)pyrimidine-2,4-diamine hydrochloride] |
